Measured values: patent US5776720A, “Assay reagent” (priority 1995, dated 1998)
Where a name gives a salt, the structure may show the parent alone.

Columns and labels:
monocytes = test: Normal leukocyte enzyme activity (Table 3A), monocytes; assay type: cell-based, human; set-up: unit not given here; settings: normal donors
Excerpt: (§1) The measured fluorescence intensity can be converted from mean channel fluorescence (in peak or integrated mode) to MESF (molecules of equivalent soluble fluorochrome, Flow Cytometry Standards Corp. , San Juan, Puerto Rico) or International Units of hydrolysis per cell. A normal range of enzyme activity is established by assaying males and females in sufficient quantity to characterize the population levels statistically.
(§2) A normal in house adult donor pool was drawn, recording sex and determining that no known disease state was present at the time of sample draw. Criteria for rejecting samples included patients under medication, patients with infection or inflammation of any type, colds and flu as well as any known medical illness such as cancer, heart ailment and high blood pressure. A donor list of 75 patients has been developed and a mean and 2 sd range established. A subgroup of "super normals" was developed from this list by examining the 75 patients to determine which group falls closest to the mean for all enzymes in all cell types tested. These patients were used as the "wellness index" or best group of "normalcy" patients. If a study required the use of children or newborns then this same format was used to develop a data base for these age groups.

granulocyte = test: Peptidases to distinguish leukemia from non-leukemia (Table 6C), grans; assay type: cell-based, human
Excerpt: Artificial intelligence was used to analyze data of cellular enzyme functions, and determine normal and disease states. Peptidases were used to distinguish leukemia from non-leukemia (output pattern). For input patterns lymphocyte and granulocyte cell types were used with aminopeptidases, cathepsins and dipeptidylpeptidase enzyme activities. In this Example, illustrated in Tables 6A-6C, three normals and three leukemia patients were used as known output patterns for the neural network to learn (in practice, the larger the learning set the more accurate unknown prediction will be). Unknowns were then presented to the learned algorithm as shown in the test case examples. Clinical diagnosis was confirmed by physicians. The trained neural network was able to correctly classify the leukemia from the non-leukemia.

lymphocytes = test: Normal leukocyte enzyme activity (Table 3A), lymphocytes; assay type: cell-based, human; set-up: unit not given here; settings: normal donors
Excerpt: as §1, §2

granulocytes = test: Normal leukocyte enzyme activity (Table 3A), granulocytes; assay type: cell-based, human; set-up: unit not given here; settings: normal donors
Excerpt: as §1, §2

autohydrolysis rate = assay type: physicochemical; settings: 37° C., 1 cm path length
Description: A reaction run using the same data collection window without the enzyme source will determine auto-hydrolysis of the substrate and therefore the potential for negative cells to absorb the dye non-specifically resulting in false positive.
(§3) The acetate and tartrate salts thus prepared have the following characteristics, respectively: native free fluorescence, 63,000 and 61,000 photons; autohydrolysis rate when measured at 37° C. using a 1 cm path length, -5.56 and -3.8 change in photons per second; and enzymatic reaction rate of cathepsin B at 37° C., +128 and +138 change in photons per second.

cathepsin B = test: enzymatic reaction rate of cathepsin B; assay type: biochemical; settings: 37° C.
Description: as §3

enzyme = test: modulator effect on sensitivity of substituted rhodamine 110 substrates; assay type: cell-based; settings: 1 mM
Excerpt: Modulators are components used to […] the sensitivity of the enzyme for the leaving group. The modulators speed up or slow down the activity of an enzyme by changing the active site. […] Preferred modulators for particular enzymes are included in Table 1.

aminopeptidase = test: effect of calcium chloride on aminopeptidase reaction with (H-L-Asp)2 rhodamine 110; assay type: biochemical; settings: approximately 10 mM
Excerpt: The chemical nature of the buffer is important to the reactivity of the assay compound with the cellular enzymes. […] In addition, the assay compound hydrolysis by the enzyme occurs at an increased rate of reaction.

native free fluorescence = assay type: physicochemical
Excerpt: Assays for peptidases using assay compounds generate fluorescence generally in the range of 10^-5 to 10^-6 Molar free rhodamine 110. Therefore, it is preferred that the free rhodamine 110 and blocked peptide impurities in the assay reagent should be removed to a concentration of less than the fluorescence generated by about 1×10^-6 M and more preferably less than the fluorescence generated by about 10^-7 Molar free indicator group. This amounts to a 100,000 photon count using rhodamine 110 as a standard at 10^-7 -10^-8 M, preferably 5×10^-8 M in a 1 cm path length cuvette when measured over 10 min. on a photon counting spectrofluorometer manufactured by the SLM Company of Chicago, Ill. This corresponds to a use level on the flow cytometer where no cellular false positive can be detected for a 10 minute period at the highest sensitivity setting. […] The presence of impurities causes a decrease in the storage stability of the compound, resulting in an increased autohydrolysis which leads to increased background fluorescence. A compound should be free of impurities such that when the compound (or reagent containing the compound) is stored at 4° C. for 30 days, preferably 90 days, more preferably 180 days, most preferably one year, the background fluorescence increases less than 10% , preferably less than 5% , most preferably less than 1% over these time periods, respectively. […]

amino peptidase = test: immune competence, amino peptidase activity in Ficoll prepared lymphocytes (FIG. 4); assay type: cell-based; settings: acute lympholytic Ficoll prepared lymphocytes, FIG. 4B
Excerpt: The cell's ability to fight off an invader lies within its genetics and therefore cell type. The "readiness" however of any genetically capable group of cells to defend is different. A measure of this "readiness" is manifest in the available proteolytic enzymes contained within vacuoles or on the surface of the cell. The assay compound hydrolysis rate increases with increased mass of enzymes giving a picture of immune competence both in number of cells and activity level. […] Images were generated using Universal Imaging.

dipeptide reagent = test: effect of added sodium chloride on dipeptide reagent; assay type: cell-based; settings: addition of 7 mM, pH range 6.5 to 8.7
Excerpt: Inhibitors and poisons (or toxins) are components that can be added to reduce the activity of non-targeted enzymes that provide competing reactions for the leaving group. Inhibitors are usually very selective for a particular enzyme. For example, EDTA only works with enzymes requiring Ca^+2, Mg^+2 and some other metals. […] Preferred inhibitors for particular enzymes are included in Table 1.

For `CC(C)C[C@H](N)C(=O)NCC(=O)Nc1ccc2c(c1)Oc1cc(NC(=O)CNC(=O)[C@@H](N)CC(C)C)ccc1C21OC(=O)c2ccccc21` [LG], the “NORMAL LEUKOCYTE ENZYME ACTIVITY, MONOS Mean” value (monocytes) was 44.56, the enzyme activity (granulocyte; N193 NORMAL) was 3.55 and the enzyme activity (granulocyte; N199* NORMAL (later found to have cervical cancer)) was 2.02. For the same compound, the “NORMAL LEUKOCYTE ENZYME ACTIVITY, LYMPHS Mean” value (lymphocytes) was 13.83 and the “NORMAL LEUKOCYTE ENZYME ACTIVITY, GRANS Mean” value (granulocytes) was 29.99.

For `CC(C)C[C@H](N)C(=O)NCC(=O)Nc1ccc2c(c1)Oc1cc(NC(=O)CNC(=O)[C@@H](N)CC(C)C)ccc1C21OC(=O)c2ccccc21` [tartrate, (H-LEU-GLY)2 Rhodamine 110 Tartrate], the autohydrolysis rate (autohydrolysis rate) was -3.8 change in photons per second and the “enzymatic reaction rate of cathepsin B” value (cathepsin B) was “+138 change in photons per second”.

In the case of `O[C@H](CS)[C@@H](O)CS` [dithioerythritol (DTE), dithioerythritol], the “effect on sensitivity of leaving group for enzyme” value (enzyme; substrates with Ala-Gly and Leu-Gly) is reported as “does not change the sensitivity” and the “effect on sensitivity of rhodamine 110 substrates” value (enzyme; substrates with Pro, Gly, Gln-Ser, Val-Lys-Val-Lys, Ala-Ala, Ala-Ala-Ala-Ala) is reported as “decreases the sensitivity”.

For `[Ca+2].[Cl-].[Cl-]` [calcium chloride], the “effect on aminopeptidase reaction with (H-L-Asp)2 rhodamine 110” value (aminopeptidase) was “inhibitory to the enzyme reaction”.

For `CC(C)C[C@H](N)C(=O)NCC(=O)Nc1ccc2c(c1)Oc1cc(NC(=O)CNC(=O)[C@@H](N)CC(C)C)ccc1C21OC(=O)c2ccccc21` [acetate, (H-LEU-GLY)2 Rhodamine 110 Acetate], the autohydrolysis rate (autohydrolysis rate) was -5.56 change in photons per second, the “enzymatic reaction rate of cathepsin B” value (cathepsin B) was “+128 change in photons per second” and the native free fluorescence (native free fluorescence) was 63,000 photons.

With `NCC(=O)Nc1ccc2c(c1)Oc1cc(NC(=O)CN)ccc1C21OC(=O)c2ccccc21` [GLY, (Gly)2 Rho 110] the enzyme activity (granulocyte; N192 NORMAL) was 48.67, the “NORMAL LEUKOCYTE ENZYME ACTIVITY, LYMPHS Mean” value (lymphocytes) was 18.18 and the “NORMAL LEUKOCYTE ENZYME ACTIVITY, GRANS Mean” value (granulocytes) was 29.48.

For `CC(C)C[C@H](N)C(=O)Nc1ccc2c(c1)Oc1cc(NC(=O)[C@@H](N)CC(C)C)ccc1C21OC(=O)c2ccccc21` [LEU, (Leu)2 Rho 110], the “NORMAL LEUKOCYTE ENZYME ACTIVITY, MONOS Mean” value (monocytes) was 120.66, the “NORMAL LEUKOCYTE ENZYME ACTIVITY, LYMPHS Mean” value (lymphocytes) was 34.94 and the amino peptidase activity (amino peptidase) was “lost their enzymatic activity”. The “NORMAL LEUKOCYTE ENZYME ACTIVITY, GRANS Mean” value (granulocytes) was 80.19.

For `NCCCC[C@H](N)C(=O)Nc1ccc2c(c1)Oc1cc(NC(=O)[C@@H](N)CCCCN)ccc1C21OC(=O)c2ccccc21` [LYS, (H--L--Lys)2 Rho 110.4TFA], the “NORMAL LEUKOCYTE ENZYME ACTIVITY, MONOS Mean” value (monocytes) was 7.56, the enzyme activity (granulocyte; N194 NORMAL) was 1.66 and the “NORMAL LEUKOCYTE ENZYME ACTIVITY, LYMPHS Mean” value (lymphocytes) was 1.16. For the same compound, the “NORMAL LEUKOCYTE ENZYME ACTIVITY, GRANS Mean” value (granulocytes) was 4.27.

For `[Cl-].[Na+]` [sodium chloride], the “effect on dipeptide reagent” value (dipeptide reagent) was “slightly inhibitory effect”.
